Each block holds one compound with its values, some of them ahead of it.
Legend:
NOTUM [1] = biological target: T1, NOTUM (Homo sapiens, UniProt Q6P988); test: Competitive gel-based ABPP; assay type: biochemical; details: 10 μM, 30 min pretreatment at 37 °C; CM of WT-NOTUM-transfected HEK293T cells
T1 sequence (Q6P988 20-496): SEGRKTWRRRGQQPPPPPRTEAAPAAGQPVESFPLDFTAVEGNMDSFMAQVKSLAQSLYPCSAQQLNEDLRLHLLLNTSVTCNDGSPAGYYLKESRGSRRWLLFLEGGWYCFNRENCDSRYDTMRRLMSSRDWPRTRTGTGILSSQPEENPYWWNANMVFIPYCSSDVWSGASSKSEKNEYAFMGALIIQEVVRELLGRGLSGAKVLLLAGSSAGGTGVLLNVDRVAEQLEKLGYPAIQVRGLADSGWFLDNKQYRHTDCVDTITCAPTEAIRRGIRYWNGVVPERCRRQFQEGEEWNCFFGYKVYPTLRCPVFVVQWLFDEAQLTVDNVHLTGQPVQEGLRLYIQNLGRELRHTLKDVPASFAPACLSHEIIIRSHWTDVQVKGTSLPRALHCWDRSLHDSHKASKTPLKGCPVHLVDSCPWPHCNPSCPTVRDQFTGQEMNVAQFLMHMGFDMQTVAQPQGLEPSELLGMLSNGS

PPT1 = biological target: T2, PPT1 (Homo sapiens, UniProt P50897); assay type: cell-based; details: SW620 cells in situ 2 h; ABC45 probe 1 µM
T2 sequence (P50897 28-306): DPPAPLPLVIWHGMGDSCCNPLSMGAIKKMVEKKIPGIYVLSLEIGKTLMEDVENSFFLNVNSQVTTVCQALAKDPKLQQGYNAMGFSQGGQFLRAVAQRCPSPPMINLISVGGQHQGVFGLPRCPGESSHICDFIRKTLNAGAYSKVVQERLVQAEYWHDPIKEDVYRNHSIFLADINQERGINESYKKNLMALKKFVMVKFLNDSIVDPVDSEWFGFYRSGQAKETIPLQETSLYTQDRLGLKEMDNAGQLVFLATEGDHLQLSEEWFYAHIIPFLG

serine hydrolases = test: Competitive gel-based ABPP; assay type: cell-based, human; details: SW620 soluble and membrane proteomes, in situ 2 h, 37 °C, FP-Rh
NOTUM [2] = biological target: T1, NOTUM; assay type: biochemical; details: SW620 CM; for inhibitory activity for NOTUM: competitive gel-based ABPP
ABHD6 = biological target: T3, ABHD6 (Homo sapiens, UniProt Q9BV23); test: MS-based ABPP, SW620 cells in situ; assay type: cell-based; details: 10 µM, Supplementary Figure 3
T3 sequence (Q9BV23 1-337): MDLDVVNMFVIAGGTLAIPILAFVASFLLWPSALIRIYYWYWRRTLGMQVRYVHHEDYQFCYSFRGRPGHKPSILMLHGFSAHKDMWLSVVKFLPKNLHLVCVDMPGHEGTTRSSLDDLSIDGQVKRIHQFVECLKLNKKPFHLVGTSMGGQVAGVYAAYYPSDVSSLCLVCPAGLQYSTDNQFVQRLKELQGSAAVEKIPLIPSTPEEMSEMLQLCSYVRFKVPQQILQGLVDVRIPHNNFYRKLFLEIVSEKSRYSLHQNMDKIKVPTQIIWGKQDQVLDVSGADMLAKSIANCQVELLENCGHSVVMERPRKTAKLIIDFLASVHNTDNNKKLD

[3] = system: FP-biotin-enriched proteins of SW620 conditioned media; test: Quantitative MS-based ABPP of SW620 CM; assay type: biochemical, human; details: 0.5 and 10 μM; both CM and SW620 in situ treated cells
NOTUM [4] = biological target: T1, NOTUM; test: ABC99yne direct labeling; details: 0.1 μM probe; CM and cellular lysate of SW620 cells; Rh-N3 click

Structure (SMILES): COc1ccc(N2CCN(C(=O)ON3C(=O)C4CN(Cc5ccc(Br)cc5)CCN4C3=O)CC2)cc1 (stereo not drawn) [ABC28]
FP-Rh reactivity with NOTUM (NOTUM [1]): blocked FP-Rh reactivity with NOTUM

Structure (SMILES): O=C(c1ccc(Cl)cc1)N1CCN2C(=O)N(OC(=O)N3CCOc4ccccc43)C(=O)C2C1 (stereo not drawn) [ABC101]
inhibitory activity for NOTUM (NOTUM [2]): lost inhibitory activity for NOTUM
inhibition of ABHD6 (ABHD6): maintained inhibition of ABHD6

Structure (SMILES): O=C1C2CN(Cc3ccc(Cl)cc3)CCN2C(=O)N1OC(=O)N1CCOc2ccccc21 (stereo not drawn) [ABC99]
PPT1 inhibition (PPT1): did not cross-react
cross-reactivity with the 64 additional serine hydrolases quantified by MS-ABPP [3]: virtually no cross-reactivity

Continued, in another order:

PPT1 inhibition (PPT1): potent inhibitor of PPT1
Structure (SMILES): COc1ccc(N2CCN(C(=O)ON3C(=O)C4CN(Cc5ccc(Cl)cc5)CCN4C3=O)CC2)cc1 (stereo not drawn) [ABC90]
selectivity across serine hydrolases (serine hydrolases): only a single major site of ABC90 cross reactivity was observed; a 35 kDa protein that we suspected was ABHD6

FP-Rh reactivity with NOTUM (NOTUM [1]): blocked FP-Rh reactivity with NOTUM
Structure (SMILES): O=C1C2CN(Cc3ccc(Oc4ccccc4)nc3)CCN2C(=O)N1OC(=O)N1CCOc2ccccc21 (stereo not drawn) [ABC63]
PPT1 inhibition (PPT1): did not inhibit PPT1 at concentrations up to 10 μM

inhibitory activity for NOTUM (NOTUM [2]): completely lost activity
Structure (SMILES): COc1ccc(N2CCN(C(=O)ON3C(=O)C4CN(Cc5cccc(Cl)c5)CCN4C3=O)CC2)cc1 (stereo not drawn) [ABC91]

IC50 for blockade of FP-Rh reactivity of NOTUM (NOTUM [2]; 30 min, 37 °C): sub-micromolar
Structure (SMILES): C#CCN1CCN(C(=O)ON2C(=O)C3CN(Cc4ccc(Cl)cc4)CCN3C2=O)c2ccccc21 (stereo not drawn) [ABC99yne]
direct labeling selectivity (NOTUM [4]): highly selective labeling of NOTUM with no other cross-reactive proteins observed
